Data reported in ChEMBL document CHEMBL1201862, “PubChem BioAssay data set” (2004).
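Test compounds were applied to cells in 96-well plates for 48 hours at 5 doses. Here, GI50 denotes the concentration required for 50% inhibition of growth.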 Calls of active or inactive are those of the source. No stated cut-off is given here; in the data, active = GI50 up to about 1.1 µM and inactive = higher.

Columns and labels:
Experiment in all cases: NCI tumour cell line growth inhibition, 48 h
SNB-75 = tested on: SNB-75
EKVX = tested on: EKVX
A498 = tested on: A498
NCI-H226 = tested on: NCI-H226
SF-268 = tested on: SF-268
OVCAR-8 = tested on: OVCAR-8
SF-295 = tested on: SF-295
TK-10 = tested on: TK-10
CCRF-CEM = tested on: CCRF-CEM
HCT-15 = tested on: HCT-15
NCI-H460 = tested on: NCI-H460
IGROV-1 = tested on: IGROV-1
RXF 393 = tested on: RXF 393
HT-29 = tested on: HT-29
HOP-62 = tested on: HOP-62
OVCAR-3 = tested on: OVCAR-3
HOP-92 = tested on: HOP-92
LOX IMVI = tested on: LOX IMVI

Row | SMILES | GI50 (SNB-75) | GI50 (EKVX) | GI50 (A498) | GI50 (NCI-H226) | GI50 (SF-268) | GI50 (OVCAR-8) | GI50 (SF-295) | GI50 (TK-10) | GI50 (CCRF-CEM) | GI50 (HCT-15) | GI50 (NCI-H460) | GI50 (IGROV-1) | GI50 (RXF 393) | GI50 (HT-29) | GI50 (HOP-62) | GI50 (OVCAR-3) | GI50 (HOP-92) | GI50 (LOX IMVI)
1 | OC(CC1SCCCS1)c1ccccc1 (configuration not stated) | > 100 µM (inactive) | > 100 µM (inactive) | > 100 µM (inactive) | > 100 µM (inactive) | > 100 µM (inactive) | > 100 µM (inactive) | > 100 µM (inactive) | > 100 µM (inactive) | > 100 µM (inactive) | > 100 µM | > 100 µM (inactive) | > 100 µM (inactive) | > 100 µM (inactive) | > 100 µM (inactive) | > 100 µM (inactive) | > 100 µM (inactive) |  | 
2 | O=C(O)Cc1ccccc1CCc1ccccc1Cl | 93.8 µM (inactive) | 96.4 µM (inactive) | > 100 µM (inactive) | 68.1 µM (inactive) | > 100 µM (inactive) | > 100 µM (inactive) | > 100 µM (inactive) | > 100 µM (inactive) | > 100 µM (inactive) | > 100 µM | > 100 µM (inactive) | > 100 µM (inactive) | > 100 µM (inactive) | > 100 µM (inactive) |  | 53.2 µM (inactive) | > 100 µM (inactive) | > 100 µM (inactive)
3 | Cn1c2c(c3ccccc31)CCN(CCCN1CCN(c3ccccc3)CC1)C2=O |  | 26.7 µM (inactive) | 18.5 µM (inactive) |  | 25.7 µM (inactive) | 21.6 µM (inactive) | 23.1 µM (inactive) | 16.9 µM (inactive) | 28.2 µM (inactive) | 19.1 µM |  | 20.8 µM (inactive) | 15.8 µM (inactive) | 13.8 µM (inactive) |  |  | 15.7 µM (inactive) | 22.9 µM (inactive)
4 | O=C(Nc1ccc([N+](=O)[O-])cc1C(=O)O)c1ccc([N+](=O)[O-])cc1 | > 100 µM (inactive) | > 100 µM (inactive) | 71.9 µM (inactive) | 17.5 µM (inactive) | 37.7 µM (inactive) | 32.1 µM (inactive) | > 100 µM (inactive) | 70.3 µM (inactive) | 11.4 µM (inactive) | 20.8 µM | 21 µM (inactive) | 29.2 µM (inactive) |  | 29 µM (inactive) | > 100 µM (inactive) | 59.6 µM (inactive) | 10.8 µM (inactive) | 24.2 µM (inactive)
5 | O=[PH](O)c1cc2ccccc2c2ccccc12 | > 100 µM (inactive) | > 100 µM (inactive) |  | > 100 µM (inactive) | > 100 µM (inactive) | > 100 µM (inactive) | > 100 µM (inactive) | > 100 µM (inactive) | > 100 µM (inactive) |  | > 100 µM (inactive) | > 100 µM (inactive) | > 100 µM (inactive) | > 100 µM (inactive) | > 100 µM (inactive) | > 100 µM (inactive) |  | > 100 µM (inactive)
6 | C=C1CCCC2[C@](C)(CC3=C(O)C(=O)C=C(OC)C3=O)[C@@H](C)CC[C@]12C (some centres not stated) | 3.94 µM (inactive) | 6.28 µM (inactive) | 6.27 µM (inactive) |  | 4.31 µM (inactive) | 4.41 µM (inactive) | 2.51 µM (inactive) | 7.16 µM (inactive) | 2.36 µM (inactive) | 2.71 µM | 2.8 µM (inactive) | 3.22 µM (inactive) | 2.73 µM (inactive) | 10.9 µM (inactive) |  | 3.53 µM (inactive) |  | 4.97 µM (inactive)
7 | C=C1C2CC(OC(C)=O)C3(C)C(c4ccoc4)OC(=O)[C@@H](O)[C@]13OC1C[C@H](OC(C)=O)C(C)(C)[C@H](CC(=O)OC)[C@]12C (some centres not stated) | 33.6 µM (inactive) | > 100 µM (inactive) | > 100 µM (inactive) | > 100 µM (inactive) |  | > 100 µM (inactive) | > 100 µM (inactive) | > 100 µM (inactive) | > 100 µM (inactive) | > 100 µM | > 100 µM (inactive) | > 100 µM (inactive) |  | > 100 µM (inactive) |  | > 100 µM (inactive) | 30.3 µM (inactive) | > 100 µM (inactive)
8 | N#C/C(=C\c1ccc(O)c(O)c1)C(N)=O | 17.7 µM (inactive) | 53 µM (inactive) | > 100 µM (inactive) | 37 µM (inactive) | 35 µM (inactive) | 43.4 µM (inactive) | 39.1 µM (inactive) | 77.6 µM (inactive) | 5.78 µM (inactive) | 50.6 µM | 38 µM (inactive) | 76.4 µM (inactive) | 19.7 µM (inactive) | 69.8 µM (inactive) | 51.2 µM (inactive) | 28.2 µM (inactive) | 49.9 µM (inactive) | 
9 | C#C[C@]1(O)CC[C@H]2[C@@H]3CCc4cc(O)ccc4[C@H]3CC[C@@]21C [ETHINYL ESTRADIOL] | 12.6 µM (inactive) | 11.7 µM (inactive) | 20.1 µM (inactive) | 20.3 µM (inactive) | 44.1 µM (inactive) | 30.2 µM (inactive) | 19 µM (inactive) | 43.9 µM (inactive) | 23.1 µM (inactive) | 15.4 µM | 21.7 µM (inactive) | 55.5 µM (inactive) | 29 µM (inactive) | 13 µM (inactive) |  | 28 µM (inactive) | 22.9 µM (inactive) | 25.2 µM (inactive)
